Test results taken from US20260356817A1, “AMINOPYRIMIDINE AND AMINOTRIAZINE DERIVATIVES AS MYC PROTEIN MODULATORS” (Sanford Burnham Prebys Medical Discovery Institute, priority 2022, published 2026).
Like-named read-outs stand apart in the source and are kept apart here.

System: Myc
Assay: Myc inhibition assay: Myc expression per cell by anti-Myc immunofluorescence, high-content imaging
Assay type: cell-based, human (patient-derived medulloblastoma xenograft cells)
Conditions: medulloblastoma PDX cells, 4 h
How it was run: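 IC50 comes from high-content imaging of per-cell Myc immunostaining (DAPI-labelled nuclei) after 4 h compound exposure. Cells were freshly dissociated medulloblastoma PDX tumours, never passaged in vitro, grown in NSG mouse cerebellum, plated serum-free and recovered overnight before treatment.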

[1] = Table 1, read-out: IC50 (Myc inhibition)
[2] = Table 2, read-out: MYC Inhibition IC50

SMILES | IC50 [1] [nM] | IC50 [2] [nM]
COc1cc(-c2ccnc(Nc3ncccn3)n2)ccn1 [Compound 195, 4-(2-methoxypyridin-4-yl)-N-(pyrimidin-2-yl)pyrimidin-2-amine] | 10000 to 100000 | 10000 to 100000
CN(c1cccc(Nc2nccc(-c3ccc4[nH]cnc4c3)n2)c1)S(=O)(=O)c1ccccc1 [Compound 262, N-(3-((4-(1H-benzo[d]imidazol-5-yl)pyrimidin-2-yl)amino)phenyl)-N-methylbenzenesulfonamide] | 1000 to 10000 | 1000 to 10000
Oc1cc(-c2ccnc(Nc3cccc(F)c3)n2)ccn1 [Compound 242, 4-(2-((3-fluorophenyl)amino)pyrimidin-4-yl)pyridin-2-ol] | 200 to 1000 | 200 to 1000
Fc1cccc(Nc2nccc(-c3ccc4[nH]nnc4c3)n2)c1 [Compound 138, 4-(1H-benzo[d][1,2,3]triazol-5-yl)-N-(3-fluorophenyl)pyrimidin-2-amine] | 1000 to 10000 | 1000 to 10000
COc1cccc(-c2ccnc(Nc3ccccc3)n2)c1 [Compound 253, 4-(3-methoxyphenyl)-N-phenylpyrimidin-2-amine] | 10000 to 100000 | 10000 to 100000
Cc1cc(F)cc(Nc2nccc(-c3ccc4[nH]cnc4c3)n2)c1 [Compound 13, 4-(1H-benzo[d]imidazol-5-yl)-N-(3-fluoro-5-methylphenyl)pyrimidin-2-amine] | < 200 | < 200
Oc1ccc(Nc2nccc(-c3ccc4[nH]cnc4c3)n2)cn1 [Compound 29, 5-((4-(1H-benzo[d]imidazol-5-yl)pyrimidin-2-yl)amino)pyridin-2-ol] | 1000 to 10000 | 1000 to 10000
FC(F)(F)c1cccc(Nc2nccc(-c3c[nH]c4cnccc34)n2)c1 [Compound 30, 4-(1H-pyrrolo[2,3-c]pyridin-3-yl)-N-(3-(trifluoromethyl)phenyl)pyrimidin-2-amine] | 1000 to 10000 | 1000 to 10000
Oc1cccc(-c2ccnc(Nc3ccccc3)n2)n1 [Compound 226, 6-(2-(phenylamino)pyrimidin-4-yl)pyridin-2-ol] | 10000 to 100000 | 10000 to 100000
Clc1ccc(Nc2nccc(-c3ccc4[nH]cnc4c3)n2)cc1 [Compound 86, 4-(1H-benzo[d]imidazol-5-yl)-N-(4-chlorophenyl)pyrimidin-2-amine] | 200 to 1000 | 200 to 1000
CN1CCN(c2cccc(Nc3nccc(-c4ccc5[nH]cnc5c4)n3)c2)CC1 [Compound 71, 4-(1H-benzo[d]imidazol-5-yl)-N-(3-(4-methylpiperazin-1-yl)phenyl)pyrimidin-2-amine] | 200 to 1000 | 200 to 1000
COc1cccc(Nc2nccc(-c3cccc(OC)c3)n2)c1 [Compound 250, N,4-bis(3-methoxyphenyl)pyrimidin-2-amine] | 1000 to 10000 | 1000 to 10000
COc1ccc(-c2ccnc(Nc3cccc(C(F)(F)F)c3)n2)cn1 [Compound 212, 4-(6-methoxypyridin-3-yl)-N-(3-(trifluoromethyl)phenyl)pyrimidin-2-amine] | 1000 to 10000 | 1000 to 10000
CC(C)c1ccccc1Nc1nccc(-c2ccc3[nH]cnc3c2)n1 [Compound 64, 4-(1H-benzo[d]imidazol-5-yl)-N-(2-isopropylphenyl)pyrimidin-2-amine] | 1000 to 10000 | 1000 to 10000
Cn1cnc2cc(-c3ccnc(Nc4cccc(C(F)(F)F)c4)n3)ccc21 [Compound 95, 4-(1-methyl-1H-benzo[d]imidazol-5-yl)-N-(3-(trifluoromethyl)phenyl)pyrimidin-2-amine] | < 200 | < 200
Cc1nc2ccc(-c3ccnc(Nc4cccc(C(F)(F)F)c4)n3)cc2[nH]1 [Compound 142, 4-(2-Methyl-1H-benzo[d]imidazol-6-yl)-N-(3-(trifluoromethyl)phenyl)pyrimidin-2-amine] | 200 to 1000 | 200 to 1000
COc1cccc(-c2cccc(Nc3ccccc3)n2)c1 [Compound 245, 6-(3-Methoxyphenyl)-N-phenylpyridin-2-amine] | 10000 to 100000 | 10000 to 100000
